{
  "source": "patent US20190255080A1",
  "about": "“METHOD OF REDUCING THYROID-ASSOCIATED SIDE EFFECTS” (Viking Therapeutics, Inc., priority 2016, published 2019)",
  "key": {"beagle dogs [1]": {"tested_on": "beagle dogs", "assay": "Alternative dosing study in dogs: total plasma cholesterol levels", "format": "in vivo", "description": "(§1) The objective of the study was to determine the effects of oral administration of Compound 2 once-daily for 14 days followed by alternate day dosing for 14 days on plasma cholesterol levels and indicators of thyroid function in beagle dogs. Compound 2 was formulated with Lutrol F68 NF (Poloxomer 188) and carboxymethylcellulose (CMC; sodium salt/high viscosity) and was administered as a suspension in 0.5% CMC/1% Lutrol in deionized water. Twelve beagle dogs (9-15 kg) were randomized into 6 dosing groups (1 male and 1 female/group) and gavaged once-daily with a 0.5% CMC/1% Lutrol F68 suspension of Compound 2 at doses of […] or with vehicle for 14 days. At the end of the treatment cycle (Cycle 1), the dogs were washed out for 4 weeks and then entered into a second 14-day treatment cycle. Cycle 2 employed the same dosing paradigm as Cycle 1, but animals were randomized to Cycle 2 in such a way that the combined dosing groups from the two cycles consisted of 4 different animals (2 males, 2 females) each. At the conclusion of Cycle 2, dosing was continued on alternate days for an additional 14-day period (Cycle 2 Extension). Blood samples were collected at baseline and appropriate time intervals thereafter and analyzed for total plasma cholesterol levels, serum levels of total T4 (tT4), free T4 (fT4), total T3 (tT3), free T3 (fT3), and thyroid stimulating hormone (TSH)."}, "beagle dogs [2]": {"tested_on": "beagle dogs", "assay": "Alternative dosing study in dogs: indicators of thyroid function (serum tT4, fT4, tT3, fT3, TSH)", "format": "in vivo", "description": "as §1"}, "[3]": {"assay": "Previously determined no observable adverse effect level (NOAEL) and exposure at it", "conditions": "in vivo", "description": "(§2) The maximum cumulative weekly dose will not exceed 40 mg in this current clinical study. […] The projected systemic exposure (AUC0-168 hr [i.e., exposure during one week]) of the active metabolite at the 40 mg once weekly dose is 5570 ng*hr/mL. […] Projected exposures in humans receiving 40 mg once weekly is therefore estimated to be about 3-fold lower than exposures at the previously determined 5 mg/kg/day no observable adverse effect level (NOAEL)."}, "[4]": {"tested_on": "patients with primary hypercholesterolemia and non-alcoholic fatty liver disease", "assay": "Phase 1b study: LDL-C and triglycerides over 4-week treatment period", "format": "in vivo, humans", "conditions": "5 mg daily and up to 40 mg once weekly", "description": "A phase 1b, randomized, double-blind, placebo-controlled, study is carried out to assess the efficacy, safety, and tolerability of Compound 1, administered for 12 weeks followed by a 4-week off-drug phase, in patients with primary hypercholesterolemia and non-alcoholic fatty liver disease.\nas §2\nApproximately 32 subjects are enrolled and randomly assigned in a 6:2 ratio (Compound 1:placebo) to one of the following treatment groups: (1) 5 mg Compound 1 or Placebo once daily (2) 20 mg Compound 1 or Placebo once weekly (3) 40 mg Compound 1 or Placebo once weekly (4) 10 mg Compound 1 or Placebo every other day The primary endpoint is the percent change in LDL-C from the baseline visit to Day 29. Either a 20% decrease in LDL-C or a lowering of LDL-C to within the normal range is considered clinically meaningful. Subjects are also monitored for adverse effects and/or clinically relevant changes in health status or results from laboratory analyses. […]"}, "[5]": {"conditions": "0.3 mg/kg/day, once-daily oral, 14 days"}, "[6]": {"conditions": "10 mg/kg/day (highest dose), once-daily oral, 14 days"}, "[7]": {"conditions": "alternate day dosing after once-daily treatment"}},
  "note": "Entries after “also recorded” stand apart in the source; their conditions may differ.",
  "data": [
    {"compound": "Cc1cc(OC[P@]2(=O)OC[C@@H](c3cccc(Cl)c3)CO2)cc(C)c1Cc1ccc(O)c(C(C)C)c1", "note": "[Compound 2]", "values": [
      {"measurement": "effects on total plasma cholesterol levels", "setting": "beagle dogs [1]; 0.1 mg/kg/day (lowest dose), once-daily oral", "value": "minimal effects"},
      {"measurement": "average reduction of total plasma cholesterol levels on Day 15", "setting": "beagle dogs [1]; [5]", "value": -28, "unit": "mg/dL"},
      {"measurement": "average reduction of total plasma cholesterol levels on Day 15 from baseline", "setting": "beagle dogs [1]; [5]", "value": "~22", "unit": "%"},
      {"measurement": "average reduction of total plasma cholesterol levels on Day 15", "setting": "beagle dogs [1]; [6]", "value": -71, "unit": "mg/dL"},
      {"measurement": "average reduction of total plasma cholesterol levels on Day 15 from baseline", "setting": "beagle dogs [1]; [6]", "value": "~47", "unit": "%"},
      {"measurement": "total plasma cholesterol levels during alternate day dosing", "setting": "beagle dogs [1]; Cycle 2 Extension, alternate day dosing for 14 days after 14 days once-daily", "value": "remained reduced relative to vehicle-treated animals to a similar or greater extent than observed after once-daily dosing; also recorded: did not compromise cholesterol lowering efficacy"},
      {"measurement": "reductions of average total plasma cholesterol levels from baseline", "setting": "beagle dogs [1]; once-daily oral, 14 days, 0.1-10 mg/kg", "value": "up to 47%"},
      {"measurement": "levels of fT4 during Cycle 2 Extension", "setting": "beagle dogs [2]; [7]", "value": "gradually recovered to levels that approached those of vehicle-treated animals"},
      {"measurement": "levels of tT4 during Cycle 2 Extension", "setting": "beagle dogs [2]; [7]", "value": "gradually recovered to levels that approached those of vehicle-treated animals"},
      {"measurement": "recovery of TSH levels during Cycle 2 Extension", "setting": "beagle dogs [2]; [7]", "value": "more variable recovery"},
      {"measurement": "recovery of fT3 levels during Cycle 2 Extension", "setting": "beagle dogs [2]; [7]", "value": "more variable recovery"},
      {"measurement": "effects on serum TSH levels on Day 8", "setting": "beagle dogs [2]; once-daily treatment, Day 8", "value": "variable, with full suppression in some animals and up to 4-fold elevations in others"},
      {"measurement": "TSH levels reduced from baseline on Day 15", "setting": "beagle dogs [2]; once-daily treatment, Day 15, non-dose-dependent", "value": "6-27%"},
      {"measurement": "changes in tT3 levels relative to baseline levels", "setting": "beagle dogs [2]; once-daily treatment, compared with vehicle-treated group", "value": "no meaningful changes; also recorded: unaffected"},
      {"measurement": "reductions of serum tT4 from baseline levels", "setting": "beagle dogs [2]; once-daily treatment, dose-dependent, across dose groups", "value": "20-54%"},
      {"measurement": "reductions of fT4 from baseline levels", "setting": "beagle dogs [2]; once-daily treatment, dose-related, across dose groups", "value": "8-39%"},
      {"measurement": "reductions of fT3 from baseline levels", "setting": "beagle dogs [2]; once-daily treatment, non-dose-dependent, across dose groups", "value": "15-32%"}
    ]},
    {"compound": "Cc1cc(OCP(=O)(OCOC(=O)C(C)(C)C)OCOC(=O)C(C)(C)C)cc(C)c1Cc1ccc(O)c(Cc2ccccc2)c1", "note": "[Compound 1]", "values": [
      {"measurement": "NOAEL", "setting": "[3]", "value": 5, "unit": "mg/kg/day"},
      {"measurement": "LDL-C", "setting": "[4]", "value": "dose and/or schedule dependent decreases"},
      {"measurement": "triglycerides", "setting": "[4]", "value": "dose and/or schedule dependent decreases"}
    ]}
  ]
}
